# Biological target: HSP90 (Homo sapiens, UniProt P07900)
# Test: HSP90 inhibition (HSP90 IC50)
# Format: biochemical
row,IC50,Compound
1,0.5 to 0.999 µM,COc1cccc(C(=O)N[C@H]2C[C@H]3CC[C@@H](C2)N3c2ccc(C(N)=O)cn2)c1C [6-[3-endo-({[2-methyl-3-(methyloxy)phenyl]carbonyl}amino)-8-azabicyclo[3.2.1]oct-8-yl]pyridine-3-carboxamide]
2,< 0.5 µM,COc1cccc(C(=O)N[C@H]2C[C@H]3CC[C@@H](C2)N3c2ccc(C(=O)NCc3cccc(N4CCN(C)CC4)c3)cn2)c1C [6-[3-endo-({[2-methyl-3-(methyloxy)phenyl]carbony}amino)-8-azabicyclo[3.2.1]oct-8-yl]-N-{[3-(4-methylpiperazin-1-yl)phenyl]methyl}pyridine-3-carboxamide]
3,0.5 to 0.999 µM,CSc1cccc(C(=O)NC2CC3CCC(C2)N3c2ccc(C(=O)N[C@@H](C)c3ccc(N4CCN(C)CC4)cc3)cn2)c1C (stereo partly drawn) [6-[3-endo-({[2-methyl-3-(methylthio)phenyl]carbonyl}amino)-8-azabicyclo[3.2.1]oct-8-yl]-N-{(1S)-1-[4-(4-methylpiperazin-1-yl)phenyl]ethyl}pyridine-3-carboxamide]
4,1 to 2 µM,COc1cccc(C(=O)N[C@H]2C[C@H]3CC[C@@H](C2)N3c2ccc(C(=O)NCc3ccccc3)cn2)c1CCCNC(C)C [6-[3-endo-({[2-{3-[(1-methylethyl)amino]propyl}-3-(methyloxy)phenyl]carbonyl}amino)-8-azabicyclo[3.2.1]oct-8-yl]-N-(phenylmethyl)pyridine-3-carboxamide]
5,2 to 10 µM,Cc1c(C(=O)NC2CC3CCC(C2)N3c2ccc(C(=O)N[C@@H](C)c3ccc(N4CCN(C)CC4)cc3)cn2)cccc1N(C)C (stereo partly drawn) [6-[3-endo-({[3-(dimethylamino)-2-methylphenyl]carbonyl}amino)-8-azabicyclo[3.2.1]oct-8-yl]-N-{(1S)-1-[4-(4-methylpiperazin-1-yl)phenyl]ethyl}pyridine-3-carboxamide]
6,0.5 to 0.999 µM,C=CCc1c(OC)cccc1C(=O)N[C@H]1C[C@H]2CC[C@@H](C1)N2c1ccc(C(=O)NCc2ccccc2)cn1 [6-[3-endo-({[3-(methyloxy)-2-prop-2-en-1-ylphenyl]carbonyl}amino)-8-azabicyclo[3.2.1]oct-8-yl]-N-(phenylmethyl)pyridine-3-carboxamide]

# More lines, now with the values behind:
row,Compound,IC50
1,"COc1cccc(C(=O)N[C@H]2C[C@H]3CC[C@@H](C2)N3c2ccc(C(=O)NCc3cc(OC)c(OC)c(OC)c3)cn2)c1C [6-[3-endo-({[2-methyl-3-(methyloxy)phenyl]carbonyl}amino)-8-azabicyclo[3.2.1]oct-8-yl]-N-{[3,4,5-tris(methyloxy)phenyl]methyl}pyridine-3-carboxamide]",1 to 2 µM
2,COc1cccc(CNC(=O)c2ccc(N3[C@@H]4CC[C@H]3C[C@@H](NC(=O)c3cccc(OC)c3C)C4)nc2)c1 [6-[3-endo-({[2-methyl-3-(methyloxy)phenyl]carbonyl}amino)-8-azabicyclo[3.2.1]oct-8-yl]-N-{[3-(methyloxy)phenyl]methyl}pyridine-3-carboxamide],2 to 10 µM
3,COc1cccc(C(=O)N[C@H]2C[C@H]3CC[C@@H](C2)N3c2ccc(C(=O)NCc3ccc(C4CCN(C)CC4)cc3)cn2)c1C [6-[3-endo-({[2-methyl-3-(methyloxy)phenyl]carbonyl}amino)-8-azabicyclo[3.2.1]oct-8-yl]-N-{[4-(1-methylpiperidin-4-yl)phenyl]methyl}pyridine-3-carboxamide],< 0.5 µM
4,COc1ccc(CNC(=O)c2ccc(N3[C@@H]4CC[C@H]3C[C@@H](NC(=O)c3cccc(OC)c3C)C4)nc2)cc1 [6-[3-endo-({[2-methyl-3-(methyloxy)phenyl]carbonyl}amino)-8-azabicyclo[3.2.1]oct-8-yl]-N-{[4-(methyloxy)phenyl]methyl}pyridine-3-carboxamide],< 0.5 µM
5,COc1cccc(C(=O)N[C@H]2C[C@H]3CC[C@@H](C2)N3c2ccc(C(=O)NCc3ccc(C(F)(F)F)cc3)cn2)c1C [6-[3-endo-({[2-methyl-3-(methyloxy)phenyl]carbonyl}amino)-8-azabicyclo[3.2.1]oct-8-yl]-N-{[4-(trifluoromethyl)phenyl]methyl}pyridine-3-carboxamide],1 to 2 µM
